Data: patent US12637474B2, “Five-membered heteroaromatic imidazole compound and use thereof” (Hangzhou Sciwind Biosciences Co., Ltd, priority 2020, dated 2026)

Legend:
[1] = biological target: T1, Human-GLP1 (Homo sapiens, UniProt P43220); assay: In vitro cell activity test (cAMP detection, GLP-1 HEK293 cells); assay type: cell-based; conditions: HEK293 cells expressing GLP-1 target
T1 construct: the earlier reading says HEK293
Protocol: Experimental Embodiment 1. In Vitro Cell Activity Test
The cell was constructed by Shanghai WuXi AppTec New Pharmaceutical Development Co., Ltd. The detailed information is as follows.
The compound was formulated to a working concentration of 30 μM with DMSO. In this experiment, the amount of each sample used was 5 μL.
The pH value was adjusted to 7.4 and diluted to 25 mL with HBSS 1×.
Preparation of cAMP detection reagent, 250 μL of cAMP-D2 and 250 μL of anti-cAMP cryptate reagent were added to 4 mL of lysis buffer, and the mixture was mixed gently.
The compound to be tested was 3-fold diluted at 10 points, the initial concentration was 30 μM, and the dilution was completed and treated by Bravo.
The reference compound exenatide was 3-fold diluted at 10 points, the initial concentration was 500 nM, and the dilution was completed and treated by Bravo.
• 1) 100 nL of the compound was transferred to OptiPlate-384 plate using Echo. • 2) The OptiPlate-384 plate was centrifuged at 1000 rpm for 5 seconds. c) Preparation of Cell Suspension • 1) A cryopreservation tube of GLP-1 cells was quickly thawed in 37° C. warm water. • 2) The cell suspension was transferred to a Transfer 15 mL centrifuge tube, and rinsed gently with 10 mL of HBSS. • 3) The centrifuge tube was centrifuged at 1000 rpm for 1 minute at room temperature. • 4) The supernatant was discarded. • 5) The bottom cells were gently homogenized and then gently rinsed with 10 mL of HBSS, centrifuged and settled, the cells were finally re-suspend with experimental buffer. • 6) Cell density and activity were measured by Vi-cell. • 7) The concentration of GLP-1 cells was diluted to 2.0*10^5/mL with experimental buffer. • 8) […] of diluted cell suspension was transferred into OptiPlate-384 plate. • 9) The cells was incubated at room temperature for 30 minutes. d) Detection Reagent was Added: • 1) 10 μL of 800 nM gradient diluted cAMP standard was added to the empty well of OptiPlate-384 plate. • 2) 10 μL of cAMP detection reagent was added. • 3) The OptiPlate-384 plate was covered with TopSeal-A film and incubated at room temperature for 60 minutes.
TopSeal-A was removed and read by EnVision.

[2] = DMPK study in mice; assay type: in vivo; conditions: male C57 mice, plasma; for Oral DNAUC / Cmax / bioavailability: oral 5 mg/kg; for Oral DNAUC: DNAUC=AUCPO/Dose; for half-life / Cmax / bioavailability / clearance / Vd: mouse; for half-life: oral, 5 mg/kg; for half-life / clearance / Vd: single dose; for Vd: read-out: Vdss
Protocol: Male C57 mice were used as test animals, after a single dose, the plasma concentration of the compound was determined and the pharmacokinetic behavior was evaluated.
Three healthy adult male C57 mice were selected as oral group. In the oral group, the solvent was 20% PEG400/10% solutol/70% water, the compounds to be tested were mixed with the solvent, the mixture was votexed and sonicated to prepare a 0.5 mg/mL clear solution. After oral administration of 5 mg/kg, the whole blood of mice was collected for a certain period of time, and the plasma was prepared, the drug concentration was analyzed by LC-MS/MS, and the pharmacokinetic parameters were calculated by Phoenix WinNonlin software (Pharsight Company, USA).
Note: -- refers to untested; PEG refers to polyethylene glycol; solutol refers to polyethylene glycol-15 hydroxystearate; Cmax refers to maximum concentration; DNAUC=AUCPO/Dose, AUCPO refers to oral exposure and Dose refers to drug dose; Vdss refers to distribution volume; Cl refers to clearance rate; T1/2 refers to half-life.

[3] = DMPK study in cynomolgus monkey; assay type: in vivo; conditions: male cynomolgus monkey, plasma; for Cmax / Oral DNAUC / bioavailability: oral 3 mg/kg; for Vd: read-out: Vdss
Protocol: Male cynomolgus monkey were used as test animals, after a single dose, the plasma concentration of the compound was determined and the pharmacokinetic behavior was evaluated.
Two healthy male cynomolgus monkeys were selected as the oral group. The solvent of the oral group was 20% PEG 400+10% solutol+70% water. The compounds to be tested were mixed with the solvent, the mixture was votexed and sonicated to prepare a 0.5 mg/mL approximately clear solution. The oral dosage of cynomolgus monkeys was 3 mg/kg, after oral administration, the whole blood of cynomolgus monkeys was collected for a certain period of time, and the plasma was prepared, the drug concentration was analyzed by LC-MS/MS, and the pharmacokinetic parameters were calculated by Phoenix WinNonlin software (Pharsight Company, USA).

[4] = biological target: T2, hERG potassium channel (Homo sapiens, UniProt Q12809); assay: hERG test (automatic patch clamp, CHO-hERG cells); assay type: cell-based; conditions: hERG current; for IC50: Qpatch; for Maximum concentration inhibition rate (%): highest test concentration 40 μM
T2 construct: expressed in transfected cells; host or cells: CHO-hERG cells
T2 sequence (Q12809 whole entry): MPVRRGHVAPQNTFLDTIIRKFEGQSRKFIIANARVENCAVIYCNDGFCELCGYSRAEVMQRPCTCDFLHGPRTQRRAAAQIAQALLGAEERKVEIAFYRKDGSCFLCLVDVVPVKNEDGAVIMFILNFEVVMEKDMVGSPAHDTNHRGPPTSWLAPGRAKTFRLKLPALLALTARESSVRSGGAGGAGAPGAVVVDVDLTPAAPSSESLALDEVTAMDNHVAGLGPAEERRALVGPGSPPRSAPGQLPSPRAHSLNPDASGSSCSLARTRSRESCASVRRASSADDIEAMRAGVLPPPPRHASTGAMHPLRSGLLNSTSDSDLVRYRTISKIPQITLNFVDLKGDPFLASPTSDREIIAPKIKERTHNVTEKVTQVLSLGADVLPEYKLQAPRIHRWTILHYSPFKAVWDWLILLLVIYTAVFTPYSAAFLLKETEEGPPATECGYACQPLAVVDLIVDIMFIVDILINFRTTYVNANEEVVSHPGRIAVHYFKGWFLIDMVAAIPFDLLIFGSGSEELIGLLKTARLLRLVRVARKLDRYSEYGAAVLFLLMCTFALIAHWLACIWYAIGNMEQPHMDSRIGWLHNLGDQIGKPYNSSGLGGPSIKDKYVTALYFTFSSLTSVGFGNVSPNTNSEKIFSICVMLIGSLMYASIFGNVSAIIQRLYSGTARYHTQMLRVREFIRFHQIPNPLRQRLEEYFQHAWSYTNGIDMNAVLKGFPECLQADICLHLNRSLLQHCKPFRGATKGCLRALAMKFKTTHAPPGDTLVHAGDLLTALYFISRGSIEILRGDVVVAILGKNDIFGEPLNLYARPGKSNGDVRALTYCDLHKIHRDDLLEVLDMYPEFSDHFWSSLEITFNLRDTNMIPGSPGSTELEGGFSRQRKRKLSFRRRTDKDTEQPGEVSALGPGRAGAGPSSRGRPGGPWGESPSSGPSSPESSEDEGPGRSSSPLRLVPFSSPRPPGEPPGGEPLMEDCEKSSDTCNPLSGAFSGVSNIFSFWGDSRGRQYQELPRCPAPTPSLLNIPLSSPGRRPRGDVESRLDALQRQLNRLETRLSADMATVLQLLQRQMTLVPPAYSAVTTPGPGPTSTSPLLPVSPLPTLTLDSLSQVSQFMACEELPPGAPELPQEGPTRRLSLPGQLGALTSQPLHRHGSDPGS
Protocol: The effects of compounds on the current of hERG potassium channel (human Ether-a-go-go Related Gene potassium channel) were measured by the automatic patch clamp method.
CHO-hERG cells were cultured in a 175 cm^2 flask, when the cell density reached 60-80%, the culture medium was removed, the cells were washed once with 7 mL of PBS (Phosphate Buffered Saline), and then detached with 3 mL of Detachin. After digestion was completed, 7 mL of culture medium was added to neutralize, then the mixture was centrifuged, the supernatant was aspirated, and then 5 mL of culture medium was added to re-suspend, ensuring 2-5×10^6/mL of cell density.
Extracellular fluid formulation (mM): 140 NaCl, 5 KCl, 1 CaCl2, 1.25 MgCl2, 10 HEPES and 10 Glucose, the pH value was adjusted to 7.4 with NaOH.
Intracellular fluid formulation (mM): 140 KCl, 1 MgCl2, 1 CaCl2, 10 EGTA and 10 HEPES, the pH value was adjusted to 7.2 with KOH.
The process of single cell high impedance sealing and whole cell mode formation were all automatically completed by Qpatch instrument, after obtaining the whole cell recording mode, the cells were clamped at −80 mV, before giving a 5-second+40 mV depolarization stimulus, a 50 millisecond −50 mV prevoltage was given first, and then repolarized to −50 mV for 5 seconds, then returned to −80 mV. This voltage stimulation was applied every 15 seconds and after recording for 2 minutes, extracellular fluid was recordings for 5 minutes, and then the administration process was started, the compound concentration was given from the lowest test concentration, each test concentration was given for 2.5 minutes, and 3 μM of Cisapride as the positive control compound was given after all concentrations were continuously given. At least 3 cells (n>3) were tested at each concentration.
The mother liquor of the compound was diluted with DMSO, and 10 μL of mother liquor of the compound was added to 20 μL of DMSO solution, and was 3-fold diluted continuously to 6 DMSO concentrations. 4 μL of compounds with 6 DMSO concentrations were added to 396 μL of extracellular fluid, 100-fold diluted to 6 intermediate concentrations, and then 80 μL of the compounds with 6 intermediate concentrations were added to 320 μL of extracellular fluid, 5-fold diluted to the final concentration to be tested. The highest test concentration was 40 μM, in a total of 6 concentrations of 40, 13.3, 4.4, 1.48, 0.494 and 0.165 μM respectively. The content of DMSO in the final test concentration was not more than 0.2%, and this concentration of DMSO had no effect on hERG potassium channel. The whole dilution process of compound preparation was completed by Bravo instrument.
The experimental data were analyzed by GraphPad Prism 5.0 software. […]

[5] = Permeability test (MDR1-MDCKII monolayer cell model); assay type: in vitro ADME; conditions: dog, MDCK-MDR1, incubation 150 min; for Papp B→A at 150 min, 2 μM: basal end to top; for Papp A→B at 150 min, 2 μM: top to basal end
Protocol: (§1) The objective of this study was to determine the bidirectional permeability and efflux rate of the samples by using MDR1-MDCKII monolayer cell model.
(§2) MDR1-MDCKII cells (11th generation) were inoculated into 96-well cell culture plate and cultured continuously for 4-7 days for transport experiment. The sample was administered in both directions at a concentration of 2.00 μM. After incubation for 150 min, the sample was collected and the content of the test product in the sample was determined by liquid chromatography-tandem mass spectrometry (LC-MS/MS).
(§3) When the administration concentration was 2.00 μM, the average apparent permeability coefficient (Papp) of the test product from the top to the basal end (A-B) direction, the average apparent permeability coefficient from the basal end to the top (B-A) direction, and the efflux ratio (ER) are shown in Table 5. Note: The boundaries of low and high permeability grades were equivalent to 50% and 80% of human “calculated Fa”. The grading criteria were based on WuXi AppTec's routine MDR1-MDCK II permeability test (test concentration was 2 μM, incubation for 2.5 hours).

[6] = system: MDR1 (P-gp); assay: as above; assay type: in vitro ADME; conditions: dog, MDCK-MDR1, incubation 150 min, read-out: Efflux rate
Protocol: as §1, §2, §3

[7] = system: MDR1-MDCKII cells; assay: as above; assay type: in vitro ADME; conditions: 2.00 μM, low/high boundaries equivalent to 50% and 80% of human calculated Fa
Protocol: as §1, §2, §3

T1 sequence (P43220 24-463): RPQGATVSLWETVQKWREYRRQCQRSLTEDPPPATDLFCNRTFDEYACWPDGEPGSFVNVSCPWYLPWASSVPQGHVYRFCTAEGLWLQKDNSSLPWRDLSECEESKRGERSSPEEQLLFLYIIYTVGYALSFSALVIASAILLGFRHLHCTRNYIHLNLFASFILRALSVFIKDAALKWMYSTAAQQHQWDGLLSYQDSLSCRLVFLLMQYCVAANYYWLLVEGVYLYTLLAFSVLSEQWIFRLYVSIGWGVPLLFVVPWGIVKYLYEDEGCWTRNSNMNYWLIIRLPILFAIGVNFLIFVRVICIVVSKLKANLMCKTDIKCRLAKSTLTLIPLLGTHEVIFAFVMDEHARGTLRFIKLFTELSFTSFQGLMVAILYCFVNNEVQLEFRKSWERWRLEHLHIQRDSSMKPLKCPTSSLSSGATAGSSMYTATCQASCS

O=C(O)c1cc2nc(CN3CC=C(c4cccc(OCc5ccc(Cl)cc5F)n4)CC3)n(C[C@@H]3CCO3)c2s1 [WXA006]
EC50 [1]: 1.44 nM | Oral DNAUC [2]: 307.4 nM.h/mpk | half-life [2]: 1.43 h | Cmax [2]: 865 nM

O=C(O)c1cc2c(nc(CN3CC=C(c4cccc(OCc5ccc(Cl)cc5F)c4)CC3)n2C[C@@H]2CCO2)s1 [WXA011]
EC50 [1]: 1.94 nM

N#Cc1ccc(COc2cccc(C3=CCN(Cc4nc5cc(C(=O)O)sc5n4C[C@@H]4CCO4)CC3)c2)c(F)c1 [WXA014]
EC50 [1]: 9.6 nM

O=C(O)c1sc2nc(CN3CC=C(c4cccc(OCc5ccc(Cl)cc5F)n4)CC3)n(C[C@@H]3CCO3)c2c1F [WXA007]
EC50 [1]: 0.2 nM

N#Cc1ccc(COc2cccc(C3CCN(Cc4nc5sc(C(=O)O)cc5n4C[C@@H]4CCO4)CC3)n2)c(F)c1 [WXA003]
EC50 [1]: 1.07 nM

O=C(O)c1cc2nc(CN3CC=C(c4ccc(F)c(OCc5ccc(Cl)cc5F)n4)CC3)n(C[C@@H]3CCO3)c2s1 [WXA016]
EC50 [1]: 3.52 nM

Cc1c(C(=O)O)sc2nc(CN3CC=C(c4cccc(OCc5ccc(Cl)cc5F)n4)CC3)n(C[C@@H]3CCO3)c12 [WXA008]
EC50 [1]: 2.46 nM

N#Cc1ccc(COc2cccc(C3=CCN(Cc4nc5sc(C(=O)O)cc5n4C[C@@H]4CCO4)CC3)n2)c(F)c1 [WXA001]
EC50 [1]: 0.67 nM | Oral DNAUC [2]: 647.4 nM.h/mpk | half-life [2]: 2.07 h | bioavailability [2]: 220% | clearance [2]: 104 mL/min/kg | Vd [2]: 1.87 L/kg | Cmax [2]: 1760 nM | Cmax [3]: 28.3 nM | Oral DNAUC [3]: 74 nM.h/mpk | bioavailability [3]: 5.6% | clearance ([3]; single dose): 22.7 mL/min/kg | Vd ([3]; single dose): 0.73 L/kg | IC50 [4]: > 40000 nM | Maximum concentration inhibition rate (%) [4]: 30.4% | Papp B→A at 150 min, 2 μM [5]: 3.87 ×10⁻⁶ cm/s | Papp A→B at 150 min, 2 μM [5]: 2.53 ×10⁻⁶ cm/s | efflux ratio at 150 min, 2 μM [6]: 1.53 | Rank (permeability grade) [7]: Medium

N#Cc1ccc(COc2cccc(C3=CCN(Cc4nc5sc(C(=O)O)cc5n4C[C@@H]4CCO4)CC3)c2)c(F)c1 [WXA013]
EC50 [1]: 2.46 nM

O=C(O)c1cc2c(nc(CN3CC=C(c4ccc(F)c(OCc5ccc(Cl)cc5F)n4)CC3)n2C[C@@H]2CCO2)s1 [WXA015]
EC50 [1]: 1.64 nM

O=C(O)c1cc2c(nc(CN3CC=C(c4cccc(OCc5ccc(Cl)cc5F)n4)CC3)n2C[C@@H]2CCO2)s1 [WXA005]
Oral DNAUC [2]: 301.8 nM.h/mpk | half-life [2]: 2.47 h | bioavailability [2]: 63% | clearance [2]: 63.6 mL/min/kg | Vd [2]: 2.84 L/kg | Cmax [2]: 835 nM | Cmax [3]: 245 nM | Oral DNAUC [3]: 889 nM.h/mpk | half-life ([3]; oral, 3 mg/kg, single dose): 4.94 h | bioavailability [3]: 31% | clearance ([3]; single dose): 10.7 mL/min/kg | Vd ([3]; single dose): 0.59 L/kg | IC50 [4]: > 40000 nM | Maximum concentration inhibition rate (%) [4]: 33.1% | Papp B→A at 150 min, 2 μM [5]: 8.49 ×10⁻⁶ cm/s | Papp A→B at 150 min, 2 μM [5]: 7.19 ×10⁻⁶ cm/s | efflux ratio at 150 min, 2 μM [6]: 1.18 | Rank (permeability grade) [7]: High

N#Cc1ccc(COc2cccc(C3CCN(Cc4nc5cc(C(=O)O)sc5n4C[C@@H]4CCO4)CC3)n2)c(F)c1 [WXA004]
EC50 [1]: 1.9 nM

N#Cc1ccc(COc2cccc(C3=CCN(Cc4nc5cc(C(=O)O)sc5n4C[C@@H]4CCO4)CC3)n2)c(F)c1 [WXA002]
EC50 [1]: 2.7 nM

O=C(O)c1cc2nc(CN3CC=C(c4cccc(OCc5ccc(Cl)cc5F)c4)CC3)n(C[C@@H]3CCO3)c2s1 [WXA012]
EC50 [1]: 9.4 nM
